The test concerns histone deacetylase (HDAC). Nature of the test: cellular acetylation assay (acetylation of histones monitored in PC3 cells, ELISA). Format: cell-based. The settings on record: PC3 human prostate carcinoma cells; compound 1 uM; 24 h incubation; antibodies against acetylated histone H3 or H4. As to the method:
Therein, acetylation of histones is monitored in PC3 cells. High acetylation means inhibition of histone deacetylase by compounds. Cell viability is monitored in parallel to estimate the cytotoxicity of the compounds.
PC3 cells, human prostate carcinoma cells, are seeded as 1800 cells per well of 384-well microtiterplate in RPMI 1640 (including 5% FCS, 2 mM glutamine and pen/strep). After 48 h at 37° C., pre-diluted compounds are added at a final concentration of 1 uM. Compounds are pre-diluted 1:10 in dimethyl sulfoxide (DMSO) or medium resulting in a final concentration of DMSO of 0.5%.
After 24 h, incubation the cell viability is determined by adding cell proliferation reagent WST1. Another 60 min. later, the optical density (OD) is measured (450 nm versus 690 nm).
After WST1 assay, the cell layer is prepared for the ELISA reaction. Medium is aspirated and cells are fixed in ethanol at −20° C. for 60 min. After washing with PBS/Tween, the blocking solution (PBS/ 5% FCS/Tween) is added and the cell layer is washed again. Antibodies against histone H3 or H4 (Anti-Acetylated Histone (rabbit polyclonal IgG), Upstate Biotechnologie) are added at a dilution of 1:200 for 60 min at 37° C. As a second antibody, goat anti-rabbit IgG(H+L) human IgG adsorbed-HRP conjugate (Dako) is used (1:2000 diluted). Cells are washed 3 times and the peroxidase substrate ABTS is allowed to react for 30–60 min at 37° C. Oxalic acid stops the reaction, and the OD is measured at 405 nm.
The percentage of acetylation is calculated after subtraction of blank O.D.s: […]
In general terms: ELISA stands for enzyme-linked immunosorbent assay.
For `Nc1ccccc1NC(=O)c1ccc(CNC(=O)C2CCCC2)s1` [Example 4-1, 5-[(Cyclopentanecarbonyl-amino)-methyl]-thiophene-2-carboxylic acid (2-amino-phenyl)-amide], the “cell acetylation (PC3, 1 μM) [% of control]” value is 170 % of control.

`Nc1ccccc1NC(=O)c1ccc(CNC(=O)NCC2CC2)cc1` [Example 6-29, N-(2-Amino-phenyl)-4-(3-cyclopropylmethyl-ureidomethyl)-benzamide]: the “cell acetylation (PC3, 1 μM) [% of control]” value is 187 % of control.

Regarding `Nc1ccccc1NC(=O)c1ccc(CNC(=O)CC2C=CCC2)cc1` (stereo not drawn) [Example 4-31, N-(2-Amino-phenyl)-4-[(2-cyclopent-2-enyl-acetylamino)-methyl]-benzamide], the “cell acetylation (PC3, 1 μM) [% of control]” value is on record as 176 % of control.

For `CCCC(=O)NCc1ccc(C(=O)Nc2ccccc2N)s1` [Example 4-6, 5-(Butyrylamino-methyl)-thiophene-2-carboxylic acid (2-amino-phenyl)-amide], the “cell acetylation (PC3, 1 μM) [% of control]” value is listed as 238 % of control. With `CC(C)CNC(=O)NCc1ccc(C(=O)Nc2ccccc2N)s1` [Example 6-13, 5-(3-Isobutyl-ureidomethyl)-thiophene-2-carboxylic acid (2-amino-phenyl)-amide] the figure was 178 % of control; with `CC(=O)Nc1ccc(C(=O)Nc2ccccc2N)cc1` [CI 994, reference compound], 152 % of control; with `C=CCNC(=O)NCc1ccc(C(=O)Nc2ccccc2N)s1` [Example 6-12, 5-[(3-Allyl-ureido)-methyl]-thiophene-2-carboxylic acid (2-amino-phenyl)-amide], 170 % of control. With `C=CCNC(=O)NCc1ccc(C(=O)Nc2ccccc2N)cc1` [Example 6-27, 4-[(3-Allyl-ureido)-methyl]-N-(2-amino-phenyl)-benzamide], the “cell acetylation (PC3, 1 μM) [% of control]” value is on record as 175 % of control.

Regarding `CCOCCCNC(=O)NCc1ccc(C(=O)Nc2ccccc2N)cc1` [Example 6-26, N-(2-Amino-phenyl)-4-[3-(3-ethoxy-propyl)-ureidomethyl]-benzamide], the “cell acetylation (PC3, 1 μM) [% of control]” value is recorded as 179 % of control. With `CCCCCNC(=O)NCc1ccc(C(=O)Nc2ccccc2N)cn1` [Example 6-38, N-(2-Amino-phenyl)-6-[(3-pentyl-ureido)-methyl]-nicotinamide] the figure was 178 % of control. Take `CCOCC(=O)NCc1ccc(C(=O)Nc2ccccc2N)s1` [Example 4-3, 5-[(2-Ethoxy-acetylamino)-methyl]-thiophene-2-carboxylic acid (2-amino-phenyl)-amide]: the “cell acetylation (PC3, 1 μM) [% of control]” value is 194 % of control. With `CCC(C)CNC(=O)NCc1ccc(C(=O)Nc2ccccc2N)s1` (stereo not drawn) [Example 6-8, 5-[3-(2-Methyl-butyl)-ureidomethyl]-thiophene-2-carboxylic acid (2-amino-phenyl)-amide] the figure was 198 % of control. `CCCCCC(C)NC(=O)NCc1ccc(C(=O)Nc2ccccc2N)cc1` (stereo not drawn) [Example 6-25, N-(2-Amino-phenyl)-4-[3-(1-methyl-hexyl)-ureidomethyl]-benzamide]: the “cell acetylation (PC3, 1 μM) [% of control]” value is given as 192 % of control. Take `CN(C)CC(C)(C)CNC(=O)NCc1ccc(C(=O)Nc2ccccc2N)cc1` [Example 6-19, N-(2-Amino-phenyl)-4-[3-(3-dimethylamino-2,2-dimethyl-propyl)-ureidomethyl]-benzamide]: the “cell acetylation (PC3, 1 μM) [% of control]” value is 205 % of control. With `CC(C)OCCCNC(=O)NCc1ccc(C(=O)Nc2ccccc2N)cc1` [Example 6-28, N-(2-Amino-phenyl)-4-[3-(3-isopropoxy-propyl)-ureidomethyl]-benzamide] the figure was 177 % of control.

Source of the values: patent US7098247B2, “Arylene-carboxylic acid (2-amino-phenyl)-amide derivatives” (Hoffmann-La Roche Inc., priority 2002, dated 2006).
